Columns and labels:
[1] = refractive index (Na D-line) (dimensionless); xn = mol fraction of the nth substance listed; settings: 101 kPa, Liquid, Standard Abbe refractometry
[2] = xn = mol fraction of the nth substance listed; settings: 101 kPa, Liquid; for viscosity: Capillary tube (Ostwald / Ubbelohde) method

CCC(C)=O [butanone] + CCCCCO
Settings	mass density, 298.15 K [kg/m3]	mass density, 308.15 K [kg/m3]	mass density, 318.15 K [kg/m3]	refractive index, 298.15 K	refractive index, 308.15 K	refractive index, 318.15 K	viscosity, 298.15 K [mPa·s]	viscosity, 308.15 K [mPa·s]	viscosity, 318.15 K [mPa·s]
[1], x1 = 0.088	–	–	–	1.4049	1.4014	1.3976	–	–	–
[1], x1 = 0.1632	–	–	–	1.4031	1.3997	1.3957	–	–	–
[1], x1 = 0.2427	–	–	–	1.401	1.3976	1.3937	–	–	–
[1], x1 = 0.3549	–	–	–	1.3979	1.3943	1.3905	–	–	–
[1], x1 = 0.4434	–	–	–	1.3953	1.3914	1.3878	–	–	–
[1], x1 = 0.5597	–	–	–	1.3915	1.3873	1.3838	–	–	–
[1], x1 = 0.6518	–	–	–	1.3883	1.3838	1.3804	–	–	–
[1], x1 = 0.7401	–	–	–	1.3851	1.3804	1.377	–	–	–
[1], x1 = 0.8477	–	–	–	1.381	1.376	1.3724	–	–	–
[1], x1 = 0.9355	–	–	–	1.3776	1.3725	1.3686	–	–	–
[1], x1 = 1	–	–	–	1.375	1.37	1.3657	–	–	–
[2], x1 = 0.088	809.94	802.26	794.44	–	–	–	2.557	2.011	1.608
[2], x1 = 0.1632	809.15	801.25	793.21	–	–	–	1.997	1.616	1.321
[2], x1 = 0.2427	808.31	800.16	791.89	–	–	–	1.592	1.304	1.097
[2], x1 = 0.3549	807.11	798.62	789.99	–	–	–	1.202	1.009	0.852
[2], x1 = 0.4434	806.15	797.39	788.5	–	–	–	0.983	0.835	0.721
[2], x1 = 0.5597	804.87	795.76	786.5	–	–	–	0.773	0.667	0.585
[2], x1 = 0.6518	803.85	794.44	784.88	–	–	–	0.648	0.57	0.5
[2], x1 = 0.7401	802.85	793.14	783.31	–	–	–	0.554	0.492	0.443
[2], x1 = 0.8477	801.59	791.54	781.36	–	–	–	0.485	0.427	0.381
[2], x1 = 0.9355	800.55	790.21	779.73	–	–	–	0.42	0.38	0.345
[2], x1 = 1	799.76	789.21	778.52	–	–	–	0.391	0.361	0.334

— the NIST ThermoML archive (doi:10.1021/je901067c)
